These results are taken from patent US20080167314A1, “Condensed Imidazole Compound And Use Thereof” (priority 2004, published 2008).

One may read the melting point as the temperature, or range, at which the solid turns liquid.

Each structure is given as a SMILES string.

Consider `Cc1ccc(Nc2cc(-c3c(-c4cccc(C)c4)nc4cccnn34)ccn2)cc1` [Example Compound 6-8, N-(4-methylphenyl)-4-[2-(3-methylphenyl)imidazo[1,2-b]pyridazin-3-yl]pyridin-2-amine], for which the melting point lay in the range of 213 to 214 °C.

Molecule `Cc1cccc(Nc2cc(-c3c(-c4cccc(C)c4)nc4cccnn34)ccn2)c1` [Example Compound 6-9, N-(3-methylphenyl)-4-[2-(3-methylphenyl)imidazo[1,2-b]pyridazin-3-yl]pyridin-2-amine] displayed a melting point of 195 to 196 °C.

For the molecule `Cc1cccc(-c2nc3cccnn3c2-c2ccnc(NC3CCCc4ccccc43)c2)c1` (centres unmarked) [Example Compound 6-12, 4-[2-(3-methylphenyl)imidazo[1,2-b]pyridazin-3-yl]-N-(1,2,3,4-tetrahydtonaphthalen-1-yl)pyridin-2-amine], the melting point lay within 195 to 196 °C.

As to `COCCNc1cc(-c2c(-c3cccc(C)c3)nc3cccnn23)ccn1` [Example Compound 6-13, N-(2-methoxyethyl)-4-[2-(3-methylphenyl)imidazo[1,2-b]pyridazin-3-yl]pyridin-2-amine], the melting point was 99 to 100 °C.

The molecule `Cc1cccc(-c2nc3cccnn3c2-c2ccnc(NCCN3CCCCC3)c2)c1` [Example Compound 6-14, 4-[2-(3-methylphenyl)imidazo[1,2-b]pyridazin-3-yl]-N-[2-(piperidin-1-yl)ethyl]pyridin-2-amine] registered a melting point of 143 to 144 °C.

The molecule `Cc1cccc(-c2nc3cccnn3c2-c2ccnc(NCc3cccs3)c2)c1` [Example Compound 6-15, 4-[2-(3-methylphenyl)imidazo[1,2-b]pyridazin-3-yl]-N-(2-thienylmethyl)pyridin-2-amine] returned a melting point of 185 to 186 °C.

In the case of `Cc1cccc(-c2nc3cccnn3c2-c2ccnc(NCC3CCCO3)c2)c1` (centres unmarked) [Example Compound 6-16, 4-[2-(3-methylphenyl)imidazo[1,2-b]pyridazin-3-yl]-N-(tetrahydrofuran-2-ylmethyl)pyridin-2-amine], the melting point lay in the range of 137 to 138 °C.

For the molecule `Cc1cccc(-c2nc3cccnn3c2-c2ccnc(NCc3ccco3)c2)c1` [Example Compound 6-17, N-(2-furylmethyl)-4-[2-(3-methylphenyl)imidazo[1,2-b]pyridazin-3-yl]pyridin-2-amine], the melting point lay in the range of 150 to 151 °C.

Consider `CCN(CC)CCNc1cc(-c2c(-c3cccc(C)c3)nc3cccnn23)ccn1` [Example Compound 6-19, N,N-diethyl-N′-{4-[2-(3-methylphenyl)imidazo[1,2-b]pyridazin-3-yl]pyridin-2-yl}ethane-1,2-diamine], for which the melting point lay in the range of 97 to 98 °C.

`Cc1cccc(-c2nc3cccnn3c2-c2ccnc(N[C@@H](C)c3ccccc3)c2)c1` [Example Compound 6-21, 4-[2-(3-methylphenyl)imidazo[1,2-b]pyridazin-3-yl]-N-[(1S)-1-phenylethyl]pyridin-2-amine]: the melting point was 154 to 155 °C.

On to `Cc1cccc(-c2nc3cccnn3c2-c2ccnc(N[C@H](C)c3ccccc3)c2)c1` [Example Compound 6-22, 4-[2-(3-methylphenyl)imidazo[1,2-b]pyridazin-3-yl]-N-[(1R)-1-phenylethyl]pyridin-2-amine], for which the melting point is 154 to 155 °C.

For `Cc1cccc(-c2nc3cccnn3c2-c2ccnc(NCc3ccccc3)c2)c1` [Example Compound 6-23, N-benzyl-4-[2-(3-methylphenyl)imidazo[1,2-b]pyridazin-3-yl]pyridin-2-amine], the melting point lay in the range of 193 to 194 °C.

Molecule `CCCCNc1cc(-c2c(-c3cccc(C)c3)nc3cccnn23)ccn1` [Example Compound 6-24, N-butyl-4-[2-(3-methylphenyl)imidazo[1,2-b]pyridazin-3-yl]pyridin-2-amine] returned a melting point of 128 to 129 °C.

`CCCNc1cc(-c2c(-c3cccc(C)c3)nc3cccnn23)ccn1` [Example Compound 6-25, 4-[2-(3-methylphenyl)imidazo[1,2-b]pyridazin-3-yl]-N-propylpyridin-2-amine] displayed a melting point of 128 to 129 °C.

As for `CCNc1cc(-c2c(-c3cccc(C)c3)nc3cccnn23)ccn1` [Example Compound 6-26, N-ethyl-4-[2-(3-methylphenyl)imidazo[1,2-b]pyridazin-3-yl]pyridin-2-amine], the melting point was in the range of 151 to 153 °C.

For `Nc1cc(-c2c(-c3cccc(Cl)c3)nc3ccc(Cl)nn23)ccn1` [Example Compound 13-1, 4-[6-chloro-2-(3-chlorophenyl)imidazo[1,2-b]pyridazin-3-yl]pyridin-2-amine], the melting point is 268 to 269 °C.

As for `Nc1cc(-c2c(-c3ccc(Cl)cc3)nc3cccnn23)ccn1` [Example Compound 16-2, 4-[2-(4-chlorophenyl)imidazo[1,2-b]pyridazin-3-yl]pyridin-2-amine], the melting point lay within 252 to 253 °C.

Regarding `Cc1cccc(-c2nc3cccnn3c2-c2ccnc(NC(=O)c3ccc(Cl)cc3)c2)c1` [Example Compound 20-3, 4-chloro-N-{4-[2-(3-methylphenyl)imidazo[1,2-b]pyridazin-3-yl]pyridin-2-yl}benzamide], the melting point was in the range of 211 to 212 °C.

With `Cc1cccc(-c2nc3cccnn3c2-c2ccnc(NC(=O)c3cccc(F)c3)c2)c1` [Example Compound 20-4, 3-fluoro-N-{4-[2-(3-methylphenyl)imidazo[1,2-b]pyridazin-3-yl]pyridin-2-yl}benzamide], the melting point lay in the range of 204 to 205 °C.

On to `Cc1cccc(-c2nc3cccnn3c2-c2ccnc(NC(=O)c3ccccc3F)c2)c1` [Example Compound 20-5, 2-fluoro-N-{4-[2-(3-methylphenyl)imidazo[1,2-b]pyridazin-3-yl]pyridin-2-yl}benzamide], for which the melting point lay in the range of 180 to 181 °C.

`CC(=O)Nc1cc(-c2c(-c3cccc(C)c3)nc3cccnn23)ccn1` [Example Compound 20-7, N-{4-[2-(3-methylphenyl)imidazo[1,2-b]pyridazin-3-yl]pyridin-2-yl}acetamide] displayed a melting point of 227 to 228 °C.

`CCC(=O)Nc1cc(-c2c(-c3cccc(C)c3)nc3cccnn23)ccn1` [Example Compound 20-9, N-{4-[2-(3-methylphenyl)imidazo[1,2-b]pyridazin-3-yl]pyridin-2-yl}propanamide] yielded a melting point of 138 to 139 °C.

On to `COc1ccc(CC(=O)Nc2cc(-c3c(-c4cccc(C)c4)nc4cccnn34)ccn2)cc1` [Example Compound 20-12, 2-(4-methoxyphenyl)-N-{4-[2-(3-methylphenyl)imidazo[1,2-b]pyridazin-3-yl]pyridin-2-yl}acetamide], for which the melting point is 213 to 214 °C.

Regarding `COc1ccc(C(=O)Nc2cc(-c3c(-c4cccc(Cl)c4)nc4cccnn34)ccn2)cc1` [Example Compound 21-3, N-{4-[2-(3-chlorophenyl)imidazo[1,2-b]pyridazin-3-yl]pyridin-2-yl}-4-methoxybenzamide], the melting point was 223 to 224 °C.

`CCC(=O)Nc1cc(-c2c(-c3cccc(Cl)c3)nc3cccnn23)ccn1` [Example Compound 21-7, N-{4-[2-(3-chlorophenyl)imidazo[1,2-b]pyridazin-3-yl]pyridin-2-yl}propanamide] had a melting point of 192 to 193 °C.

`Cc1cc(-c2nc3cccnn3c2-c2ccnc(NC(=O)c3ccc(Cl)cc3)c2)ccc1F` [Example Compound 21-17, 4-chloro-N-{4-[2-(4-fluoro-3-methylphenyl)imidazo[1,2-b]pyridazin-3-yl]pyridin-2-yl}benzamide] returned a melting point of 207 to 209 °C.

Take `CCC(=O)Nc1cc(-c2c(-c3ccc(F)c(C)c3)nc3cccnn23)ccn1` [Example Compound 21-18, N-{4-[2-(4-fluoro-3-methylphenyl)imidazo[1,2-b]pyridazin-3-yl]pyridin-2-yl}propanamide]: the melting point lay within 166 to 167 °C.

As for `CCC(=O)Nc1cc(-c2c(-c3ccc(Cl)cc3)nc3cccnn23)ccn1` [Example Compound 21-28, N-{4-[2-(4-chlorophenyl)imidazo[1,2-b]pyridazin-3-yl]pyridin-2-yl}propanamide], the melting point lay within 204 to 205 °C.

With `Cc1cccc(-c2nc3cccnn3c2-c2ccnc(N(C(=O)C3CC3)C(=O)C3CC3)c2)c1` [Example Compound 23-1, N-(cyclopropylcarbonyl)-N-{4-[2-(3-methylphenyl)imidazo[1,2-b]pyridazin-3-yl]pyridin-2-yl}cyclopropanecarboxamide], the melting point fell in the range of 173 to 175 °C.

In turn, `Cc1cccc(NC(=O)Nc2cc(-c3c(-c4cccc(C)c4)nc4cccnn34)ccn2)c1` [Example Compound 27-2, N-(3-methylphenyl)-N′-{4-[2-(3-methylphenyl)imidazo[1,2-b]pyridazin-3-yl]pyridin-2-yl}urea] gave a melting point of 202 to 203 °C.

Regarding `CCNC(=O)Nc1cc(-c2c(-c3cccc(C)c3)nc3cccnn23)ccn1` [Example Compound 27-4, N-ethyl-N′-(4-[2-(3-methylphenyl)imidazo[1,2-b]pyridazin-3-yl]pyridin-2-yl)urea], the melting point fell in the range of 212 to 213 °C.

On to `Cc1cccc(-c2nc3cccnn3c2-c2ccnc(NC(=O)NC(C)C)c2)c1` [Example Compound 27-6, N-isopropyl-N′-{4-[2-(3-methylphenyl)imidazo[1,2-b]pyridazin-3-yl]pyridin-2-yl}urea], for which the melting point was 193 to 195 °C.

Regarding `CCCNC(=O)Nc1cc(-c2c(-c3ccc(F)c(C)c3)nc3cccnn23)ccn1` [Example Compound 28-4, N-{4-[2-(4-fluoro-3-methylphenyl)imidazo[1,2-b]pyridazin-3-yl]pyridin-2-yl}-N′-propylurea], the melting point fell in the range of 231 to 232 °C.

The molecule `Cc1cc(-c2nc3cccnn3c2-c2ccnc(NC(=O)NC3CCCCC3)c2)ccc1F` [Example Compound 28-6, N-cyclohexyl-N′-{4-[2-(4-fluoro-3-methylphenyl)imidazo[1,2-b]pyridazin-3-yl]pyridin-2-yl}urea] showed a melting point of 229 to 230 °C.

As for `CCNC(=O)Nc1cc(-c2c(-c3cccc(Cl)c3)nc3cccnn23)ccn1` [Example Compound 28-7, N-{4-[2-(3-chlorophenyl)imidazo[1,2-b]pyridazin-3-yl]pyridin-2-yl}-N′-ethylurea], the melting point was 230 to 231 °C.
